Results published in patent publication US11236129B2, “IL-17A binding peptides and medical uses thereof” (Dompe' Farmaceutici S.P.A., priority 2018, dated 2022).
Residues, ends and D or L forms follow the SMILES beside them.

What follows are compounds tested against IL-17RA/IL17RC dimerization induced by IL-17A (Homo sapiens, UniProt Q16552) (assay: IL-17RA/IL17RC dimerization assay in response to IL-17A (PathHunter Cytokine Receptor Assay)). Conditions: IL-17A at EC80; read-out: IC50 in IL-17RA/IL7RC dimerization assay.
Sequence of IL-17RA/IL17RC dimerization induced by IL-17A (Q16552 24-155): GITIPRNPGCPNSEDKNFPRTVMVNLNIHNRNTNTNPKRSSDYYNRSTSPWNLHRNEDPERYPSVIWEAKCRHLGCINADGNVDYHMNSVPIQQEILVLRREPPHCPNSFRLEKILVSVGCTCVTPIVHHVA
Assay type: cell-based
How it was run: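 Receptor dimerization was read as chemiluminescence from complemented β-galactosidase after IL-17A at EC80 concentration for 6–16 h at 37 °C. Peptides were added 60 min before agonist, at 37 °C or room temperature, with 1% vehicle. Percent inhibition used the EC80-stimulated and vehicle wells as references.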

Row | SMILES | IC50 [nM]
1 | CC(=O)N[C@H](C(=O)N[C@@H](Cc1c[nH]cn1)C(=O)N[C@@H](Cc1ccccc1)C(=O)N[C@@H](CCC(N)=O)C(=O)N[C@@H](Cc1ccccc1)C(=O)N1CCC[C@H]1C(=O)N[C@@H](C)C(=O)N[C@@H](CC(=O)O)C(=O)N[C@@H](CC(C)C)C(=O)N[C@@H](Cc1c[nH]c2ccccc12)C(=O)N[C@@H](CCC(=O)O)C(=O)N[C@@H](Cc1c[nH]c2ccccc12)C(=O)N[C@H](C(=O)N[C@@H](CCCNC(=N)N)C(=O)N[C@@H](CCCNC(=N)N)C(N)=O)C(C)C)C(C)C [SEQ ID NO: 130] (Ac-VHFQFPADLWEWVRR-NH2) | < 500
2 | CC(=O)N[C@H](C(=O)N[C@@H](Cc1c[nH]cn1)C(=O)N[C@@H](Cc1ccccc1)C(=O)N[C@@H](CCC(N)=O)C(=O)N[C@@H](Cc1ccccc1)C(=O)N1CCC[C@H]1C(=O)N[C@@H](C)C(=O)N[C@@H](CC(=O)O)C(=O)N[C@@H](CC(C)C)C(=O)N[C@@H](Cc1ccc(O)cc1)C(=O)N[C@@H](CCC(=O)O)C(=O)N[C@@H](Cc1c[nH]c2ccccc12)C(=O)N[C@H](C(=O)N[C@@H](CCCNC(=N)N)C(=O)N[C@@H](CCCNC(=N)N)C(N)=O)C(C)C)C(C)C [SEQ ID NO: 132] (Ac-VHFQFPADLYEWVRR-NH2) | < 500
3 | CC(=O)N[C@H](C(=O)N[C@@H](Cc1c[nH]cn1)C(=O)N[C@@H](Cc1ccccc1)C(=O)N[C@@H](CCC(N)=O)C(=O)N[C@@H](Cc1ccccc1)C(=O)N1CCC[C@H]1C(=O)N[C@@H](CCC(N)=O)C(=O)N[C@@H](CC(=O)O)C(=O)N[C@@H](Cc1c[nH]c2ccccc12)C(=O)N[C@@H](Cc1c[nH]c2ccccc12)C(=O)N[C@@H](CC(N)=O)C(=O)N[C@@H](Cc1c[nH]c2ccccc12)C(=O)N[C@H](C(=O)N[C@@H](CCCNC(=N)N)C(=O)N[C@@H](CCCNC(=N)N)C(N)=O)C(C)C)C(C)C [SEQ ID NO: 139] (Ac-VHFQFPQDWWNWVRR-NH2) | < 500
4 | CC[C@H](C)[C@H](NC(=O)[C@@H](NC(=O)[C@H](Cc1ccccc1)NC(=O)[C@H](Cc1c[nH]cn1)NC(=O)[C@@H](NC(C)=O)C(C)C)[C@@H](C)O)C(=O)N1CCC[C@H]1C(=O)N[C@@H](C)C(=O)N[C@@H](CC(=O)O)C(=O)N[C@@H](Cc1ccccc1)C(=O)N[C@@H](Cc1c[nH]c2ccccc12)C(=O)N[C@@H](CCC(=O)O)C(=O)N[C@@H](Cc1c[nH]c2ccccc12)C(=O)N[C@@H](Cc1ccccc1)C(=O)N[C@@H](CCCNC(=N)N)C(=O)N[C@@H](CCCNC(=N)N)C(N)=O [SEQ ID NO: 142] (Ac-VHFTIPADFWEWFRR-NH2) | < 500

Second part, the compound after the results:

Row | IC50 [nM] | SMILES
5 | < 10000 | CC[C@H](C)[C@H](NC(C)=O)C(=O)N[C@@H](Cc1c[nH]cn1)C(=O)N[C@H](C(=O)N[C@H](C(=O)N[C@H](C(=O)N1CCC[C@H]1C(=O)N[C@@H](C)C(=O)N[C@@H](Cc1ccc(O)cc1)C(=O)N[C@@H](CC(C)C)C(=O)N[C@@H](Cc1c[nH]c2ccccc12)C(=O)N[C@@H](CC(=O)O)C(=O)N[C@@H](Cc1c[nH]c2ccccc12)C(=O)N[C@H](C(=O)N[C@@H](CC(N)=O)C(=O)N[C@@H](CCCCN)C(N)=O)[C@@H](C)CC)[C@@H](C)CC)[C@@H](C)O)C(C)C [SEQ ID NO: 200] (Ac-IHVTIPAYLWDWINK-NH2)
6 | < 10000 | CC[C@H](C)[C@H](NC(C)=O)C(=O)N[C@@H](Cc1c[nH]cn1)C(=O)N[C@H](C(=O)N[C@H](C(=O)NCC(=O)N1CCC[C@H]1C(=O)N[C@@H](C)C(=O)N[C@@H](CC(=O)O)C(=O)N[C@@H](CC(C)C)C(=O)N[C@@H](Cc1c[nH]c2ccccc12)C(=O)N[C@@H](CC(=O)O)C(=O)N[C@@H](Cc1c[nH]c2ccccc12)C(=O)N[C@H](C(=O)N[C@@H](CC(N)=O)C(=O)N[C@@H](CCCCN)C(N)=O)[C@@H](C)CC)[C@@H](C)O)C(C)C [SEQ ID NO: 180] (Ac-IHVTGPADLWDWINK-NH2)
